This test concerns P. falciparum 3D7 growth, pLDH absorbance. As to the kind of experiment: P. falciparum 3D7 growth inhibition, dose response, strain 3D7 (AID 2305).

Values joined by “and” are separate entries in the source; they are usually repeats but may differ in a detail not shown here. Equal entries are not always repeated.

For `CC(=O)C1(c2ccccc2)CCN(CCC2(c3ccc(Cl)c(Cl)c3)CN(C(=O)C3CCCCC3)CCO2)CC1` (stereo not drawn), the IC50 – broadly, the concentration that gives 50% inhibition – was found to be 310 nM. The value for `O=C(/C=C/c1ccc(Cl)c(Cl)c1)N1CCC(CNCc2cccc3cc[nH]c23)CC1` was 1220 nM.

With `C=CCn1c(Sc2ccc(C#N)c([N+](=O)[O-])c2)nnc1-c1ccc(Cl)cc1`, the IC50 stood at 670 nM. The compound `CCCCNCc1ccc(-c2nc(CN(Cc3ccc(Cl)c(Cl)c3)S(=O)(=O)c3ccc(NC(C)=O)cc3)cs2)cc1` had an IC50 of 1030 nM. For `CC(C)(C)CC(C)(C)c1ccc(O)c(C(=O)Nc2cccc([N+](=O)[O-])c2)c1` the value was 590 nM; for `COc1ccc(CC(=O)NC(CCN2CCC3(CC2)CN(S(C)(=O)=O)c2ccccc23)c2ccc(Cl)c(Cl)c2)cc1OC` (stereo not drawn), 1000 nM; for `COc1ccc(OC)c2c1CCN(C)C2Cc1cccc2ccccc12` (stereo not drawn), 1050 nM.

`CS(=O)(=O)c1ccc2nc(-c3cc(-c4cccc(F)c4)cnc3N)[nH]c2c1` registered an IC50 of 1090 nM. Take `Cc1cc(NN=Cc2ccccc2F)c2cccc(C)c2n1`: the IC50 came out at 760 nM. For `COc1ccc(N2CCN(c3nc(N)c4cc(OC)c(OC)cc4n3)CC2C)cc1` (stereo not drawn), the IC50 turned out to be 1420 nM. In the case of `CCCN(Cc1nnc(-c2cccs2)o1)C(=O)CSc1nnnn1-c1cc(C)cc(C)c1`, the IC50 is 500 nM. The value for `O=S(=O)(NCCN1CCCC1)c1ccc(-c2cccc(CNC3Cc4ccccc4C3)c2)cc1` was 620 nM; that for `CCN(CC)C(=NCCCCCCN=C(/N=C(/N)Nc1ccc(C)cc1)N(CC)CC)/N=C(/N)Nc1ccc(C)cc1` was 540 nM. For the compound `CCCN(CCC)C(=O)c1cc(C(=O)N[C@@H](Cc2ccccc2)[C@H](O)CNCc2cccc(OC)c2)cc(N2CCCCS2(=O)=O)c1`, the IC50 was 550 nM. `CCc1sc(CN(CCCNc2cc(=O)c3ccccc3[nH]2)Cc2sc(CC)c(Br)c2-c2ccsc2)c(-c2ccsc2)c1Br` registered an IC50 of 90 nM. The value for `COC(=O)c1cccc(CNCc2cccc(-c3cccc(-c4nc5c(C)cccc5[nH]4)c3)c2)c1` was 190 nM; that for `COC(=O)c1ccc(Nc2nccc(Nc3ccc(Oc4ccccc4)cc3)n2)cc1` was 1020 nM. For `O=S(=O)(c1ccccc1Cl)N1CCCCC(c2ccc(C(F)(F)F)cc2)=N1` the value was 940 nM; for `Cc1cc(C2CCN(CCCCNC(=O)c3ccc(-c4ccc(C(F)(F)F)cc4)cc3)CC2)c(C)cc1OCC#N`, 1010 nM. The value for `COc1ccc2nccc([C@@H](O)CN3CCC(NCc4cc5oc(=O)[nH]c5cc4Cl)CC3)c2c1` was 380 nM; that for `CCCS(=O)(=O)c1nc(S(=O)(=O)c2ccc(Cl)cc2)c(N2CCCCC2)s1` was 1290 nM. `Cc1ccc(O)c(CN2CCCC(COC(c3ccc(F)cc3)c3ccc(F)cc3)C2)c1` (stereo not drawn) had an IC50 of 710 nM. For `CN1CCN(c2ccc3nc(-c4ccc5nc(-c6ccc([N+](=O)[O-])c(N)c6)[nH]c5c4)[nH]c3c2)CC1` the value was 100 nM; for `Cc1cc2nc(NC3=NC4(c5ccccn5)N=C(Nc5nc6cc(C)c(C)cc6[nH]5)NC4(c4ccccn4)N3)[nH]c2cc1C` (stereo not drawn), 680 nM.

As for `CN(C(=O)/C=C/c1cc(C(F)(F)F)ccc1F)C1CCN(CCCCCNC(=O)/C=C/c2ccc(Cl)c(Cl)c2)CC1`, the IC50 stood at 290 nM. The value for `CC(C)COc1ccc(Cl)cc1Cc1ccc(-c2nc3c(F)c(F)ccc3[nH]2)o1` was 940 nM. For `CN(C)CCNCc1cccc(-c2ccc3c(Nc4ccc(F)cc4Cl)ccnc3c2)c1` the value was 810 nM. For `CN(CCS(C)(=O)=O)Cc1ccc(-c2ccc3ncnc(Nc4ccc(OCc5cccc(F)c5)c(Cl)c4)c3c2)o1` the value was 680 nM; for `COc1cc2c(cc1S(=O)(=O)c1ccc(NC(=O)c3cccc(C(F)(F)F)c3)cc1)CCN(C)CC2`, 1380 nM. With `O=C(/C=C/c1ccc(Cl)c(Cl)c1)NCCCCCN1CCCN(C(=S)Nc2cccc(Cl)c2)CC1`, the IC50 was determined as 1050 nM. In turn, `Cc1cccc(C(=O)Nc2ccnc(N3CCC(N(C)Cc4cccc(O)c4)CC3)c2)c1` displayed a 50% inhibitory concentration (IC50) of 920 nM. `CCc1cn(C)c2c(N3CCCC3=O)cc(C(=O)N[C@@H](Cc3ccccc3)[C@H](O)CNC(C)(C)c3cccc(C(F)(F)F)c3)cc12` yielded a half-maximal inhibitory concentration (IC50) of 110 nM. In turn, `CCn1c(O)c(N=NC(=S)N2CCCC2)c2ccccc21` displayed an IC50 of 1000 nM. The value for `Cc1ccccc1C1CCN(C2CCC(NC(=O)c3ccc(-c4cc(C(F)(F)F)nn4C)s3)CC2)CC1` (stereo not drawn) was 850 nM; that for `CN1CCN(Cc2ccc(-c3cc4c(Nc5ccc(OCc6cccc(F)c6)c(Cl)c5)ncnc4s3)[nH]2)CC1` was 770 nM; that for `O=C(Nc1ccc(-c2nc3ccccc3[nH]2)cc1)c1ccc(S(=O)(=O)N2CCc3ccccc32)cc1` was 740 nM. `CC(C)CNC(=O)c1cncc(-c2ccc(CN(C)C3CCN(C)CC3)cc2)c1` returned an IC50 of 880 nM. Turning to `CNC(=O)c1cnc(Nc2ccc(N3CCN(C)CC3)cc2)nc1Nc1cccc(OC(C)C)c1`, the IC50 was 150 nM. For `Cc1cccc2[nH]c(-c3ccc(-c4cccc(NC(=O)Nc5ccc6c(c5)OCO6)c4)cc3)nc12` the value was 740 nM. For `Cc1[nH]c2ccccc2c1C(=O)C(C)Sc1nnc(-c2ccccc2F)o1` (stereo not drawn) the value was 690 nM. With `COc1ccc2[nH]c(C(=O)Nc3cccc(-c4ccc(CN(C)C)cc4)c3)cc2c1`, the IC50 came out at 910 nM. The value for `CCC(C)(C)c1ccc(N2C(N)=NC(N)=NC2(C)C)cc1` was 10 nM.

With `O=C(NC1CCN(Cc2ccccc2)CC1)c1cc(C(=O)NC2CCN(Cc3ccccc3)CC2)cc(C(=O)NC2CCN(Cc3ccccc3)CC2)c1`, the IC50 worked out at 1040 nM.

`Cc1cc(N[C@@H](Cc2ccccc2)C(=O)NCc2cccs2)nc(NCC2CCCCC2)n1` displayed an IC50 of 990 nM. For `COc1ccc2ccc(F)c(CC(=O)N3CCOC(CNCc4cccc(-c5ccsc5)n4)C3)c2n1` (stereo not drawn), the IC50 worked out at 1170 nM. For `C[C@H](Cc1ccc(CCc2ccc(C[C@@H](C)NC[C@H](O)c3cccc(Cl)c3)cc2)cc1)NC[C@H](O)c1cccc(Cl)c1` the value was 940 nM. As for `O=C(Nc1nc2cc(S(=O)(=O)NCCc3cccc(F)c3)ccc2n1CCCn1ccnc1)c1ccc(Cl)cc1`, the IC50 is 1270 nM. The value for `N=c1c(C(=O)NCc2ccccc2)cc2c(=O)n3ccccc3nc2n1CCc1ccccc1` was 530 nM. As for `CCOC(=O)CCCCCNC[C@H](O)c1ccccc1`, the half-maximal inhibitory concentration (IC50) came to 330 nM. For `COc1ccc(NC(=O)Nc2ccc(-c3cccc(-c4nc5c(C)cccc5[nH]4)c3)cc2)cc1`, the IC50 is 140 nM.

Regarding `Cc1cccc2[nH]c(-c3ccc(-c4cccc(NC(=O)Cc5cnc[nH]5)c4)cc3)nc12`, the IC50 worked out at 900 nM. The value for `CC(=O)Nc1ccc(OCCCCN(Cc2ccccc2C(F)(F)F)c2ccc(C#N)c(C(F)(F)F)c2)c(Cl)c1` was 980 nM; that for `CCOc1cc(C(=O)NC2CC(C)(C)N(C)C(C)(C)C2)ccc1-c1nc2cc(Cl)c(Cl)cc2[nH]1` was 860 nM. In turn, `Cc1onc(-c2ccccc2)c1-c1nc(NC2CCCC(C)C2)no1` (stereo not drawn) yielded an IC50 of 840 nM. The compound `O=S(=O)(NCCN1CCCC1)c1ccc(-c2cccc(CNC3Cc4ccccc4C3)c2)cc1F` displayed an IC50 of 1020 nM. The value for `O=C(C=Cc1ccc(Cl)c(Cl)c1)NCCCCCN1CCCC(CCCNC(=O)c2cccs2)C1` (stereo not drawn) was 1300 nM; that for `CCCc1ccc(C(=O)N2[C@@H](c3nccs3)[C@@H](C(N)=O)C[C@@]2(CC(C)C)C(=O)O)cc1` was 160 nM.

`CNC(=O)COc1ccc(Nc2nnc(-c3ccc(C)c(S(=O)(=O)NCC4CCCO4)c3)c3ccccc23)cc1` (stereo not drawn) registered an IC50 of 930 nM. Compound `Cc1cc(N)c2cc(NC(=O)c3cc(C(F)(F)F)cc(C(F)(F)F)c3)ccc2n1` gave an IC50 of 90 nM. Take `Cc1onc(-c2ccccc2)c1-c1nc(NCCC(c2ccccc2)c2ccccc2)no1`: the IC50 was determined as 840 nM.

Consider `CCCN1CCN(CCCNC(=O)c2cc3c(-c4ccc(Cl)cc4)nn(C)c3s2)CC1`, for which the IC50 came out at 1100 nM. Consider `CN1CCC(C(=O)Nc2cccc(-c3cccc(-c4nc5ccc(F)cc5[nH]4)c3)c2)CC1`, for which the IC50 was 690 nM. `OCCN1CCN(Cc2cccc(-c3cccc(-c4nc5ccc(F)cc5[nH]4)c3)c2)CC1` displayed an IC50 of 710 nM.

As for `Cn1nc2ccc3ccccc3c2nc1=N`, the IC50 amounted to 770 nM. Regarding `Cc1[nH]c(C)c(-c2ccc(-c3ccc(C(F)(F)F)cc3C(F)(F)F)nc2)c(=O)c1Br`, the IC50 was 190 nM. The value for `Cc1cc(OCCN2CCCCC2)ccc1NC(=O)c1cccc2c(=O)n(Cc3ccc(Cl)cc3)cnc12` was 1060 nM; that for `CCOc1ccc(C(=O)Nc2cc(Br)c3c(c2)CNCC3)cc1C#N` was 760 nM. The compound `Cc1ccc(NC(=O)N2CCCN(CCCCCNC(=O)/C=C/c3ccc(Cl)c(Cl)c3)CC2)cc1C` showed an IC50 of 770 nM. The value for `C(=Cc1nc2ccccc2s1)c1ccc2c(c1)OCCO2` was 390 nM. The value for `Cn1cccc1C(=O)C(=O)Nc1ccc(-c2ccc(-c3nc4ccc(F)cc4[nH]3)cc2)cc1` was 840 nM. In the case of `Cc1[nH]c(C)c(-c2cc3ccccc3o2)c(=O)c1Cl`, the IC50 turned out to be 1720 nM. The value for `COc1ccc2nccc(N(C)CC3(O)CCC(NCc4ccc5c(n4)NC(=O)CS5)CC3)c2n1` (stereo not drawn) was 700 nM; that for `O=C(Nc1ccc(Cl)cc1)c1ccc(CN2CCCN(Cc3ccc(F)cc3)CC2)cc1` was 970 nM; that for `CC(=O)N(C)c1ccc(C(=O)Nc2cccc(-c3cccc(-c4nc5ccc(C(F)(F)F)cc5[nH]4)c3)c2)cc1` was 310 nM. Consider `CCCNc1ccc(-c2cc(C(N)=O)c3[nH]cc(C4CCN(S(=O)(=O)CC)CC4)c3c2)cn1`, for which the IC50 came to 820 nM. For `CCN(CCCN1CCCCC1)c1cc(C)nc(Nc2cc(Cl)ccc2C)n1` the value was 630 nM. The value for `O=c1cc(NCCCNCc2cc(C(F)(F)F)ccc2Cl)[nH]c2ccccc12` was 1020 nM; that for `CCOC(=O)CNC(=O)c1cc(=O)c2ccccc2o1` was 210 nM. In turn, `COc1cc(CNC(=S)NN=C(C)c2ccccn2)cc(OC)c1OC` returned an IC50 of 400 nM. For `CCOCCCn1c(=N)c(C(=O)NC(C)c2ccccc2)cc2c(=O)n3cccc(C)c3nc21` (stereo not drawn) the value was 1200 nM; for `COC(=O)c1ccc(C[C@@H](C)NC[C@H](O)c2cccc(C(F)(F)F)c2)cc1`, 790 nM and 760 nM. The value for `CCC(=Cc1cccc([N+](=O)[O-])c1)C(=O)NCC1CCN(c2nc(N)c3cc(OC)c(OC)cc3n2)CC1` was 240 nM; that for `COc1ccc(CCN(C)CCOc2ccc(NC(=O)c3ccc([N+](=O)[O-])c4c(=O)c5ccccc5[nH]c34)cc2)cc1OC` was 930 nM.

The values are drawn from PubChem BioAssay AID2305 (GlaxoSmithKline (GSK), 2010).
